This passage reports IC50 results from patent US4568666A, “Carboxylalkyl peptide derivatives” (G. D. Searle & Co., priority 1984, dated 1986).

The experiment deals with T1, Human Rheumatoid Synovial Collagenase (Homo sapiens, UniProt P03956).
T1 construct: from tissue
T1 sequence (P03956 100-469): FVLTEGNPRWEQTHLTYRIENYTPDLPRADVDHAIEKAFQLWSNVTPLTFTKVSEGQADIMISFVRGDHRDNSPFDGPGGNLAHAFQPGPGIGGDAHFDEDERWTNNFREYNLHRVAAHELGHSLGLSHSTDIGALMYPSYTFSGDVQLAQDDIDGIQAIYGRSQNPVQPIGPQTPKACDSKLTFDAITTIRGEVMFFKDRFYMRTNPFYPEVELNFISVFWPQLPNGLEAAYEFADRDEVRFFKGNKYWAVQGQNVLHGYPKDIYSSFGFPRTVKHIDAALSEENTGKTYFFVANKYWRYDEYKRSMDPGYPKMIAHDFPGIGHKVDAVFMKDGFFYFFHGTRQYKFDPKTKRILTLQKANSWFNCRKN
Put plainly: Collagenase inhibition (procedure of Cawston and Barrett, acetyl 14C collagen). The experiment is classed as biochemical. As to conditions: 37° C., 16 hours, native acetyl 14C collagen, Tris HCl-CaCl2 pH 7.6. The protocol:
This was determined following the procedure of Cawston and Barrett, Anal. Biochem., 99, 340-345 (1979) whereby the 1 mM of the inhibitor being tested or dilutions thereof are incubated at 37° C. for 16 hours with native collagen and collagenase (buffered with Tris HCl--CaCl2; pH 7.6). The collagen is acetyl ^14 C collagen. The samples are centrifuged to sediment undigested collagen and an aliquot of the radiactive supernatant removed for assay on a scintillation counter as a measure of hydrolysis. The collagenase activity in the presence of 1 mM inhibitor, or a dilution thereof, is compared to activity in a control devoid of inhibitor and the results reported as that inhibitor concentration effecting 50% inhibition of the collagenase.
`CNC(=O)[C@H](Cc1ccc(OCCCCCC(C)C)cc1)NC(=O)[C@H](CC(C)C)N[C@H](CCNC(=O)OCc1ccccc1)C(=O)O` [Example 31, N-[3-N-(Benzyloxycarbonyl)amino-1-(R)-carboxypropyl]-L-leucyl-O-6(methyl)heptyl-L-tyrosine N-methyl amide]: the IC50 was 2.5 µM.

`CNC(=O)[C@H](Cc1ccc(OCc2ccccc2)cc1)NC(=O)[C@H](CC(C)C)N[C@H](C)C(=O)O` [Example 5, N[1-(R)-Carboxyethyl]-L-leucyl-O-benzyl-L-tyrosine N-Methylamide] returned an IC50 of 1.7 µM.

For the compound “N-[3-N-(Benzyloxycarbonyl)amino-1-(R)-carboxypropyl]-L-leucyl-O-(2'-carboxyethyl-L-leucyl N-Methylamide)-L-tyrosine N-Methylamide [Example 35]”, it took 2.4 µM to reach half-maximal inhibition (IC50).

In the case of `CNC(=O)[C@H](Cc1ccc(O)cc1)NC(=O)[C@H](CC(C)C)N[C@H](CCNC(=O)c1ccccc1)C(=O)O` [Example 15, N-[3-N-(Benzoyl)amino-1-(R)-carboxy-propyl]-L-leucyl-L-tyrosine N-Methylamide], 3.1 µM corresponded to half-maximal inhibition (IC50).

On to “N-[3-(N'-Benzyl)carbamoyl-1-(R)-carboxypropyl]-L-leucyl-O-methyl-L-tyrosineN-Methylamide [Example 18]”, for which 1.3 µM corresponded to half-maximal inhibition (IC50).

`CC(C)C[C@H](N[C@H](C)C(=O)O)C(=O)NCCc1ccccc1` [Example 6, N[1-(R)-Carboxyethyl]-L-Leucine N-Phenethylamide] yielded an IC50 of 42 µM.

Compound `CNC(=O)[C@H](Cc1ccc(OC)cc1)NC(=O)[C@H](CC(C)C)N[C@H](CCCCNC(=O)OCc1ccccc1)C(=O)O` [Example 21, N-[5-N-(Benzyloxycarbonyl)amino-1-(R)-carboxypentyl]-L-leucyl-O-methyl-L-tyrosine N-Methylamide] displayed an IC50 of 11 µM.

As to `CNC(=O)[C@H](Cc1ccc(OC)cc1)NC(=O)[C@H](CC(C)C)N[C@H](CCN)C(=O)O` [Example 13, N-[3-Amino-1-(R)-carboxypropyl]-L-leucyl-O-methyl-L-tryosine N-Methylamide], the midpoint of inhibition, the IC50, lay at 91 µM.

Compound `CCCCCOc1ccc(C[C@H](NC(=O)[C@H](CC(C)C)N[C@H](CCNC(=O)OCc2ccccc2)C(=O)O)C(=O)NC)cc1` [Example 29, N-[3-N-(Benzyloxycarbonyl)amino-1-(R)-carboxypropyl]-L-leucyl-O-pentyl-L-tyrosine N-Methylamide] came in with an IC50 of 0.54 µM.

For the compound `CC(C)C[C@H](N[C@H](CCNC(=O)OCc1ccccc1)C(=O)O)C(=O)NCCc1ccccc1` [Example 19, N-[3-N-(Benzyloxycarbonyl)amino-1-(R)-carboxypropyl]-L-leucine N-Phenethylamide], the IC50 is 51 µM.

In the case of `CNC(=O)[C@H](Cc1ccc(OC)cc1)NC(=O)[C@H](CC(C)C)N[C@H](CCNC(=O)OCc1ccc([N+](=O)[O-])cc1)C(=O)O` [Example 14, N-[3-N-(p-Nitrobenzyloxycarbonyl)amino-1-(R)-carboxypropyl]-L-leucyl-O-methyl-L-tyrosine N-Methylamide], inhibition was half-maximal at 1.2 µM (IC50).

On to `CNC(=O)[C@H](Cc1ccc(OCCC(C)C)cc1)NC(=O)[C@H](CC(C)C)N[C@H](CCNC(=O)OCc1ccccc1)C(=O)O` [Example 30, N[3-N-(Benzyloxycarbonyl)amino-1-(R)-carboxypropyl]-L-leucyl-O-3(methyl)butyl-L-tyrosine N-methyl amide], for which the IC50 is 1.1 µM.

Compound `CNC(=O)[C@H](Cc1ccc(OCc2ccccc2)cc1)NC(=O)[C@H](CC(C)C)N[C@H](CCNC(=O)OCc1ccccc1)C(=O)O` [Example 32, N-[3-N-(Benzyloxycarbonyl)amino-1-(R)-carboxypropyl]-L-leucyl-O-benzyl-L-tyrosine N-Methylamide] had an IC50 of 0.91 µM.

On to `CCCCNC(=O)[C@H](C)NC(=O)[C@H](CCCC)N[C@H](C)C(=O)O` [Example 24, N-(1-(R)-Carboxyethyl)-S-norleucyl-S-alanine. N-Butylamide], for which inhibition was half-maximal at 19 µM (IC50).

Consider `CNC(=O)[C@H](Cc1ccc(OC(C)C)cc1)NC(=O)[C@H](CC(C)C)N[C@H](CCNC(=O)OCc1ccccc1)C(=O)O` [Example 27, N-[3-N-(Benzyloxycarboxyl)amino-1-(R)-carbonypropyl]-L-leucyl-O-isopropyl-L-tyrosine N-methylamide], for which the IC50 is 2.1 µM.

In the case of `CNC(=O)[C@H](Cc1ccc(O)cc1)NC(=O)[C@H](CC(C)C)N[C@H](CCNC(=O)OCc1ccccc1)C(=O)O` [Example 25, N-[3-N-(Benzyloxycarbonyl)amino-1-(R)-carboxypropyl]-L-leucyl-L-tyrosine N -Methylamide], the IC50 amounted to 1.2 µM.

`CNC(=O)[C@H](Cc1ccc(OC(C)(C)C)cc1)NC(=O)[C@H](CC(C)C)N[C@H](CCNC(=O)OCc1ccccc1)C(=O)O` [Example 28] gave an IC50 of 3.6 µM.

Take `CNC(=O)[C@H](Cc1ccc(OC)cc1)NC(=O)[C@H](CC(C)C)N[C@H](CCCNC(=O)OCc1ccccc1)C(=O)O` [Example 9, N-[4-N-(Benzyloxycarbonyl)amino-1-(R)-carboxybutyl]-L-leucyl-O-methyl-L-tyrosine N-Methylamide]: it took 9.5 µM to reach half-maximal inhibition (IC50).

`CCCCNC(=O)COc1ccc(C[C@H](NC(=O)[C@H](CC(C)C)N[C@H](CCNC(=O)OCc2ccccc2)C(=O)O)C(=O)NC)cc1` [Example 34, N-[3-N-(Benzyloxycarbonyl)amino-1-(R)-carboxypropyl]-L-leucyl-O-(2-aminobutyl-2-oxo)ethyl-L-tyrosine N-Methylamide] had an IC50 of 2.6 µM.

With `COc1ccc(C[C@H](NC(=O)[C@H](CC(C)C)N[C@H](CCNC(=O)OCc2ccccc2)C(=O)O)C(=O)NCCc2ccccc2)cc1` [Example 36, N-[3-N-(Benzyloxycarbonyl)amino-1-(R)-carboxypropyl]-L-leucyl-O-methyl-L-tyrosine N-Phenethylamide], the IC50 was determined as 1 µM.

Compound `CNC(=O)[C@H](Cc1ccc(OC)cc1)NC(=O)[C@H](CC(C)C)N[C@H](CCNC(=O)c1ccc([N+](=O)[O-])cc1)C(=O)O` [Example 16, N-[3-N-(P-Nitrobenzoyl)amino-1-(R)-carboxypropyl]-L-leucyl-O-methyl-L-tyrosine. N-Methylamide] returned an IC50 of 4.9 µM.

As for `CNC(=O)[C@H](Cc1ccc(OC)cc1)NC(=O)[C@H](CC(C)C)N[C@H](CCSC)C(=O)O` [Example 7, N[1-(R)-Carboxy-3-methylthiopropyl]-L-leucyl-O-methyl-L-tyrosine N-methylamide], the IC50 turned out to be 5.5 µM.

Compound `CNC(=O)[C@H](Cc1ccc(OC)cc1)NC(=O)[C@H](CC(C)C)N[C@H](CCCCNC(=O)[C@@H]1CCCN1C(C)=O)C(=O)O` [Example 22, N-[5-N-[N-Acetyl-L-prolyl]amino-1-(R)-carboxypentyl]-L-leucyl-O-methyl-L-tyrosine N-Methylamide] came in with an IC50 of 42 µM.

`CNC(=O)[C@H](Cc1ccc(OC2CCCC2)cc1)NC(=O)[C@H](CC(C)C)N[C@H](CCNC(=O)OCc1ccccc1)C(=O)O` [Example 33, N-[3-N-(Benzyloxycarbonyl)amino-1-(R)-carboxypropyl]-L-leucyl-O-cyclopentyl-L-tyrosine N-Methylamide]: half-maximal inhibition (IC50) was put at 0.74 µM.

With `CCCOc1ccc(C[C@H](NC(=O)[C@H](CC(C)C)N[C@H](CCNC(=O)OCc2ccccc2)C(=O)O)C(=O)NC)cc1` [Example 26, N-(3-N-(Benzyloxycarbonyl)amino-1-(R)-carboxypropyl)-L-leucyl-O-propyl-L-tyrosine N-methyl amide], the IC50 was 0.74 µM.
